Data as given in PubChem BioAssay AID179 (DTP/NCI, 2004).
Calls of active or inactive are those of the source.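 Rule for the calls: active = compounds giving half or more protection of infected cells from virus-caused growth loss, again on retest; inactive = the rest.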 Where a SMILES comes first, the peptide text is derived from it. [ ]: non-standard residue; d: D form. The star is where a group is joined. NMeAc5c = CNC1(C(=O)O)CCCC1; Boc = CC(C)(C)OC(=O)*; OBn = c1ccc(CO*)cc1

System: CEM cells HIV-1 protection, formazan growth assay
Assay: NCI AIDS Antiviral Assay
Settings: for IC50: measured here: growth of uninfected CEM cells
Method in brief: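 Steps: treat uninfected and HIV-1-infected human CEM cells at five drug levels; quantify growth by soluble formazan; retest any compound reaching 50% protection; classify actives from the retest.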

Compound	outcome	EC50 [µM]	IC50 [µM]
CCN(CC)c1ccc2c(c1)Oc1ccc(N(CC)CC)cc1C21Oc2ccccc2-c2c1c1ccccc1n2CC (stereo not drawn)	inactive		
O=C(Nc1ccc(N=Nc2ccc(S(=O)(=O)O)cc2)cc1)c1ccc(N=Nc2c(S(=O)(=O)O)cc(O)c3c(NC(=O)c4ccccc4)cc(S(=O)(=O)O)cc23)cc1	active		
CCN(CC)CCC(=O)N1C/C(=C/c2ccccc2)C(=O)/C(=C\c2ccccc2)C1		> 200	0.407
C/C(=N\N=C(/[Se])N1CCCCCC1)c1ccccn1		> 81.3	0.107
NC(=N\N=C/c1ccc(Cl)cc1)/C(N)=N\N=C/c1ccc(Cl)cc1	inactive		
CC1=C(O)C(=O)C(C2=C(O)C(=O)C(C)=C(O)C2=O)=C(O)C1=O		> 263	145
COc1ccc(C2C(Cl)C(=O)N2NC(=O)c2ccccc2O)cc1OC (stereo not drawn)		> 50.1	41.7
Clc1ccc(Nc2nnc(CNc3ccc(-c4nnc(Nc5ccc(Cl)cc5)s4)cc3)s2)cc1		> 200	13.2
OCc1cc2c(cn1)[nH]c1ccc(NCc3ccccc3)cc12	inactive		
COC(=O)C(=O)C(C(=O)C=C(C)C)C(=O)C(=O)Nc1cccc(C(C)=O)c1 (stereo not drawn)		> 251	
CC(=O)C1=CSC2[C@H](NC(=O)Cc3ccccc3)C(=O)N2C1C(=O)OC(c1ccccc1)c1ccccc1 (stereo partly drawn)		> 25.7	15.8
CCN(CC)CC(C(=O)Nc1c(C)cccc1C)/C(C)=N\NC(=O)C[N+](C)(C)C (stereo not drawn)		> 40.7	> 40.7
O=c1[nH]n(Cc2ccccc2Cl)c2ccccc12		> 200	> 200
O=c1c2nc(-c3ccccc3)oc2n(-c2ccccc2)c(=O)n1-c1ccccc1		> 200	117
C#CC1(O)CC[C@H]2[C@@H]3CCC4=CCCC[C@@H]4[C@H]3CC[C@@]21C (stereo partly drawn)		> 200	30.9
CCOC(=O)C(=[N+]=[N-])C(=O)CSC#N		> 200	10.5
CC(C)=COS(=O)(=O)C(F)(F)F		> 200	110
CCOC(=O)CCC(NC(=O)c1ccc(Oc2nc3ccccc3nc2-c2ccccc2)cc1)C(=O)OCC (stereo not drawn)		> 200	> 200
O=C(CCC(=O)Nc1ccc(Cl)c(Cl)c1)CC(=O)c1ccc(Cl)cc1	inactive		
NC1=NC(c2ccccc2)CC(c2cc(Cl)ccc2O)=N1 (stereo not drawn)		> 200	12.6
Nc1[nH]c(=S)nc2nc3c4ccccc4c4ccccc4c3nc12		> 200	> 200
CNc1ccc(C)cc1S(=O)(=O)c1ccc([N+](=O)[O-])cc1		> 200	> 200

Compound	outcome	EC50 [µM]	IC50 [µM]
NC(=O)N/N=C1/CC2CCCCC2c2ccccc21 (stereo not drawn)		> 200	34.7
Clc1ccc(-c2c(C3=NCCN3)nnn2-c2ccc(Cl)cc2)cc1		> 138	115
BrC1=CCC23CC=C(Br)[C@H]4CC2(COC3)C[C@@H]1O4 (stereo partly drawn)		> 200	25.1
COc1cc2c(c(O)c1OC)C(O)C1CCC(=O)N1C2c1cccc2ccccc12 (stereo not drawn)		> 200	52.5
COc1cc(C2c3cc4c(cc3OC(NCCO)C2C)OCO4)cc(OC)c1OC (stereo not drawn)		> 20	0.24
C/C(=C\CNc1nc(Cl)nc2nc[nH]c12)CO		> 200	148
O=S(=O)(N1CCCCN(S(=O)(=O)C(F)(F)F)CCCN(S(=O)(=O)C(F)(F)F)CCCCN(S(=O)(=O)C(F)(F)F)CCCN(S(=O)(=O)C(F)(F)F)CCCCN(S(=O)(=O)C(F)(F)F)CCCN(S(=O)(=O)C(F)(F)F)CCCCN(S(=O)(=O)C(F)(F)F)CCC1)C(F)(F)F		> 200	> 200
CN1C(=S)C2=C(c3ccccc3)N(C)C(=S)C2=C1c1ccccc1		102	> 200
CCOCCOCCCNCC(=O)N1CCN(C(=O)CNCCCOCCOCC)CC1	inactive		
O=C(Nc1ccc(Cl)cc1)C(=O)Nc1ccc(Cl)cc1		> 200	> 200
CCC1(CCC#N)CCc2[nH]c3ccccc3c2C1=O (stereo not drawn)		> 200	174
CC(C)=CC1C(C(=O)N2CCCCCC2)C1(C)C (stereo not drawn)		> 200	> 200
COc1ccc(-c2noc(=O)c3ccccc23)cc1	inactive		
CC1C(=O)CC[C@@]2(C)C(=O)CCCC12O (stereo partly drawn)	inactive		
O=C(OCC1CCCN2CCCCC12)c1ccncc1 (stereo not drawn)		19.1	> 200
CN(C(=O)C(Cc1ccccc1)NC(=O)OC(C)(C)C)C1(C(=O)NC(Cc2ccccc2)C(=O)OCc2ccccc2)CCCC1 (stereo not drawn) (Boc-Phe-[NMeAc5c]-Phe-OBn; configuration not given here)		> 200	11
O=[N+]([O-])c1ccc(-[n+]2ccc3ccccc3c2)c([N+](=O)[O-])c1		> 759	4.79
C/C(=C\c1ccccc1)C(O)S(=O)(=O)O (stereo not drawn)	inactive		
O=C(NNC(=O)c1ccccc1O)c1cccs1		> 200	16.2
CCN1CC(C)Cn2c(=S)[nH]c3cc(Br)cc1c32 (stereo not drawn)		5.01	138
CC(O)CCC(=O)NCCS(=O)(=O)O (stereo not drawn)		> 200	> 200
CCN(CC)C/C(C)=C(/c1ccccc1)c1ccccc1S(N)(=O)=O		> 200	> 200
